Reference: article PMC10229078, “In vitro effects of lapachol and β-lapachone against Leishmania amazonensis” (Brazilian Journal of Medical and Biological Research, 2023)

Experiments:
J774A.1 macrophages = assay: Macrophage cytotoxicity, XTT, J774A.1
[1] = test system: IL-2, IL-4, IL-6, IFN-γ, TNF-α, IL-17A, IL-10 production in murine macrophages; assay: Cytokine production in supernatant of amastigote assays (CBA Mouse Th1/Th2/Th17 kit); format: cell-based, BALB/c mice; details: 24 h; for IL-2, IL-4, IFN-γ, IL-17A, and IL-10 production: macrophages infected with L. amazonensis and treated; for IL-6 levels / TNF-α levels: uninfected and infected treated macrophages, all concentrations tested
Description: For the determination of cytokines, the supernatant of the amastigote assays stored at −80°C was used (MO, macrophages (negative control); MO + L. amazonensis (6 parasites/macrophage); samples treated with lapachol at IC50/2, IC50, and 2× IC50 with L. amazonensis (+) or without (-); the same was repeated for β-lapachone). The supernatant was centrifuged, and a 50 μL aliquot was used to determine cytokine levels (in pg/mL) using the BD Cytometric Bead Array (CBA) Mouse Th1/Th2/Th17 Cytokine kit (BD Life Sciences - Biosciences, USA). The dosage was performed in triplicate and according to the manufacturer's standards. This method is based on a suspension that contains beads, in which encoded fluorescent beads have cytokines that capture antibodies to bind the proteins. The final analysis was performed by flow cytometry using the BD FacsCalibur™ flow cytometer and CellQuest Pro software. The kit allows the measurement of seven distinct populations of Th1, Th2, and Th17 cytokines (IL-2, IL-4, IL-6, IFN-γ, TNF-α, IL-17A, and IL-10) in a single sample.

[2] = test system: Leishmania amazonensis promastigotes; assay: Mitochondria membrane potential (ΔΨm), Rh123 flow cytometry; format: cell-based; details: for Reduction in ΔΨm: lapachol 76.62 µg/mL, β-lapachone 1.63 µg/mL, H2O2 2 mM; for Variation Index (VI) of Rh123 fluorescence, (MT−MC)/MC: lapachol 76.62 μg/mL, β-lapachone 1.63 μg/mL, PC 2 mM
Description: The ΔΨm was determined using on BD FacsCalibur™ flow cytometer and CellQuest Pro software, with a total of 10.000 events acquired, using a mitochondrial-specific green-fluorescent dye Rh123 ([31]). Briefly, L. amazonensis (2×10^7 parasites/mL) were incubated with lapachol (76.62 µg/mL) and β-lapachone (1.63 µg/mL) for 1, 4, and 24 h at 25°C. After washed with PBS, the parasites were incubated with 5 μg/mL Rh123 for 15 min. After the incubation time, the cells were washed and suspended in PBS for additional incubation of 30 min for analysis. The percentage of fluorescence of Rh123, was determined by the (MT/MC)*100 equation, with MT representing the median fluorescence of the treated parasites and the MC the median fluorescence of negative controls. Alteration in ΔΨm was quantified using an index of variation (IV) obtained by the equation IV = (MT - MC)/MC, where negative IV values correspond to depolarization of the mitochondrial membrane. H2O2 (2 mM) was used as a positive control ([32]).

[3] = test system: L. amazonensis amastigotes; assay: Activity on intracellular amastigotes in peritoneal macrophages (infection index); details: 24 h; for Inhibition of infection rate of amastigotes (infection reduction): vs untreated infected macrophages
Description: The activity of lapachol and β-lapachone on intracellular amastigotes was made on peritoneal macrophages (5×10^5 per well). Cells were seeded onto round glass coverslips within 24-well plates in RPMI 1640 medium and incubated for 2 h at 37°C in 5% CO2. After that, the proportion of 6 parasites (L. amazonensis) per macrophage were added, and cultures were incubated for 4 h at 37°C in 5% CO2. Free parasites were removed by washing with RPMI 1640 medium. The infected macrophages were incubated with lapachol (82.28, 41.14, and 20.57 µg/mL) and β-lapachone (3.26, 1.63, and 0.815 µg/mL) for 24 h at 37°C. After the incubation time, the coverslips were removed, washed, stained with Fast Panoptic, and fixed on glass slides with Entellan. […] The experiments were done twice in triplicate, and treated uninfected cells were used as the cytotoxicity control and non-treated infected cells were used as the positive control of infection. The number of intracellular amastigotes was determined by counting 200 macrophages by concentration in an optical microscope (binocular biological microscope, mod. BA310E LED, Motic, Spain). The infection index was calculated by multiplying the percentage of infected macrophages by the number of parasites per macrophages ([29]).

[4] = test system: Leishmania amazonensis promastigotes; assay: Promastigote growth inhibition, counting in Neubauer chamber (IC50); format: cell-based, Leishmania amazonensis (MHOM/BR/1977/LTB0016)
Description: Leishmania growth was evaluated after 24 h of incubation at 25°C with the compounds under the same conditions as previously mentioned. Then, 10 µL of the content of each well was added to a 990 µL (1/100) of formalin solution (2%), and the parasites were counted in a Neubauer chamber. The inhibitory concentration (IC50) of promastigotes was calculated by comparing with untreated promastigotes in culture medium. The results were evaluated by linear regression of the inhibition percentage. The selectivity index (SI CC50/IC50) was calculated by the ratio of toxicity concentration to macrophage vs inhibitory concentration to the parasite growth after 24 h incubation ([27]). All assays were performed in triplicate and repeated at least three times.

[5] = test system: Leishmania amazonensis promastigotes; assay: Change in cell volume and morphology of the parasites (flow cytometry FSC-H/SSC-H, SEM); format: cell-based; details: 24 h, lapachol 76.62 µg/mL, β-lapachone 1.63 µg/mL; for Percentage population of the lower left quadrant gate (FSC-H/SSC-H, cell volume): H2O2 2 mM, untreated 93.14%
Description: Promastigote forms (2×10^7 cells) of L. amazonensis untreated (negative control) or treated with 76.62 µg/mL of lapachol and 1.63 µg/mL of β-lapachone were analyzed to observe changes in cell morphology of the parasites induced by the treatment after 24 h of incubation. […] Subsequently, the parasites were analyzed using a BD FacsCalibur flow cytometer (Becton Dickinson, USA) and CellQuest Pro software (Joseph Trotter, Scripps Research Institute, USA), and 10,000 events were acquired. Dot plots were generated, the forward scatter (FSC-H) parameter was analyzed as presenting a correlation with the cell volume.
Scanning electron microscopy (SEM) also was performed to analyze morphological changes in cell surface topography. After 24 h of treatment, the parasites were centrifuged at 576 g for 10 min, and the samples were fixed in 2.5% glutaraldehyde and 0.1 M sodium cacodylate buffer. Poly-L-lysine was used to promote the adhesion of fixed parasites on coverslips. Promastigotes were dehydrated with increasing ethanol concentrations (30-100%), submitted to critical point drying, and metalized with gold for visualization on a Shimadzu 55-550 (Japan) microscope.

[6] = test system: L. amazonensis promastigotes; assay: DNA fragmentation assay, agarose gel electrophoresis; format: cell-based, Leishmania amazonensis; details: IC50/24 h (lapachol 76.62 µg/mL, β-lapachone 1.63 µg/mL)
Description: The presence of DNA fragmentation was evaluated by electrophoresis in agarose gel according to a previous study ([33]). L. amazonensis (1×10^6 promastigotes/mL) was incubated with the IC50 of compounds for 24 h. After validation of IC50 as mentioned above, pellets were re-suspended in digestion buffer (10 mM ethylenediamine tetraacetic acid [EDTA], 50 mM Tris-HCl [pH 8.0] and 0.5% sodium lauryl sulfate), to which 0.5 mg/mL proteinase K was added. The mixture was incubated for 3 h in […] and again for 1 h at 55°C in the presence of 0.1 mg/mL RNase A. DNA material was extracted by phenol/chloroform (1:1) treatment and was precipitated by adding 3 M sodium acetate and ice-cold ethanol (100%). After an overnight incubation at -20°C, the material was centrifuged (13270 g) for 30 min at 25°C temperature. Then, 2.5 volumes of ethanol (70%) were added to the pellet. The material was centrifuged (13270 g) for 15 min again and the pellet was collected, air dried, and re-suspended in Tris-EDTA buffer (50 µL, pH 8.0). DNA aliquots (10 µg) were electrophoresed on 2% agarose gel that contained ethidium bromide (0.5 µg/mL) using Tris-acetate-EDTA buffer (pH 8.0) for 45 min at 100 V and photographed under ultraviolet light. L. amazonensis untreated promastigotes were used as negative control of fragmentation (C-) and promastigotes treated with H2O2 as positive control (C+). […]

[7] = Leishmania amazonensis, Macrophage, read-out: Inhibition of infection rate of amastigotes (infection reduction)

| Compound | IL-2, IL-4, IFN-γ, IL-17A, and IL-10 production [1] | IL-6 levels [1] | TNF-α levels [1] | Reduction in ΔΨm ([2]; 1 h) | Variation Index (VI) of Rh123 fluorescence, (MT−MC)/MC ([2]; 1 h) | Reduction in ΔΨm ([2]; 4 h) | Variation Index (VI) of Rh123 fluorescence, (MT−MC)/MC ([2]; 4 h) | Reduction in ΔΨm ([2]; 24 h) | Variation Index (VI) of Rh123 fluorescence, (MT−MC)/MC ([2]; 24 h) | Morphological changes of promastigotes (SEM, microscopy) [5] | Percentage population of the lower left quadrant gate (FSC-H/SSC-H, cell volume) [5] | DNA fragmentation [6] | also measured |
| --- | --- | --- | --- | --- | --- | --- | --- | --- | --- | --- | --- | --- | --- |
| 4-hydroxy-3-(3-methylbut-2-enyl)naphthalene-1,2-dione [lapachol] | did not present significant changes | decrease | decrease | 44% | -0.44 | 69% | -0.69 | 30% | -0.30 | loss of cell volume, rounder shape, flagellar alterations, and cellular shrinkage | 82.82% | promoted DNA fragmentation | J774A.1 macrophage cytotoxicity CC50 (J774A.1 macrophages; J774A.1, 24 h): 26.66 ± 8.69 µg/mL; Inhibition of infection rate of amastigotes (infection reduction) ([3]; 20.57 µg/mL): 34.95%; Inhibition of infection rate of amastigotes (infection reduction) ([3]; 82.28 µg/mL): 83.11%; IC50 ([4]; 24 h, value in µM): 316 µM; Promastigotes IC50 ([4]; 24 h incubation, growth inhibition by counting): 76.62 ± 1.21 µg/mL |
| CC1(C)CCC2=C(O1)c1ccccc1C(=O)C2=O [β-lapachone, 2,2-dimethyl-3,4-dihydrobenzo[h]chromene-5,6-dione] | did not present significant changes | decrease | decrease | 15% | -0.15 | 54% | -0.54 | 98% | -0.98 | loss of cell volume, rounder shape, flagellar alterations, and cellular shrinkage | 62.35% | promoted DNA fragmentation | Selectivity index (SI CC50/IC50) (J774A.1 macrophages; J774A.1 macrophage CC50 / promastigote IC50, 24 h): 1.95; Therapeutic selectivity index (TSI CC50/LD50) (J774A.1 macrophages; J774A.1 macrophage CC50 / promastigote LD50, 24 h): 4.89; times more selective than lapachol for Leishmania death (TSI) (J774A.1 macrophages; J774A.1 macrophages): 14 times; times more selective than lapachol for inhibiting the growth of Leishmania culture (SI) (J774A.1 macrophages; J774A.1 macrophages): 5.6 times; inhibition at 0.815 µg/mL [3, 7]: 80.2%; inhibition at 1.63 µg/mL [3, 7]: 83.2%; inhibition at 3.26 µg/mL [3, 7]: 78.5%; IC50 ([4]; Leishmania amazonensis, 24 h, value in µM): 6.73 µM; IC50 ([4]; Leishmania amazonensis, 24 h incubation, growth inhibition by counting): 1.63 ± 0.09 µg/mL |
